Experimental data taken from patent US12503475B2 (Centessa Pharmaceuticals (UK) Limited, priority 2020, dated 2025).
Where two headings read alike, the source gives them in different places.

Assays:
[1] = target: T1, human orexin type 2 receptor (hOX2R) (Homo sapiens, UniProt O43614); experiment: Measurement of orexin type 2 receptor agonist activity (FLIPR calcium fluorescence); assay type: cell-based; conditions: for Emax: CHO, read-out: hOx2 Emax (%)
T1 construct: expressed in transfected cells
T1 sequence (O43614 1-444): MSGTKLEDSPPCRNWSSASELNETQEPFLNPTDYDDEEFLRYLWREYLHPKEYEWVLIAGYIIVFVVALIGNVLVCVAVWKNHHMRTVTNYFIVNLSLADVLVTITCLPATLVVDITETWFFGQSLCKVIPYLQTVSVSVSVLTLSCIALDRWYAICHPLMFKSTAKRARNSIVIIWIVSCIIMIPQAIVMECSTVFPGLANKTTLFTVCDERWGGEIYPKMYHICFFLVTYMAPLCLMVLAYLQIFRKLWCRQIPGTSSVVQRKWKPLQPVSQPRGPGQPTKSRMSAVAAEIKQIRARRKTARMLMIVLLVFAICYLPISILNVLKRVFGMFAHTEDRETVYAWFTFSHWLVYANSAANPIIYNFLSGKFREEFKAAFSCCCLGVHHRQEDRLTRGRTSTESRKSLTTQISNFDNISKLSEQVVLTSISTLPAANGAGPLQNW
Method in brief: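 Agonism was read as fluorescence in cells stably expressing human OX2R. E. is the response at 10 μM relative to orexin A as full agonist (100%).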

[2] = tested on: B6.Cg-Tg(HCRT-MJD)1Stak/J (Atax) mouse model of NT1; experiment: Wake promoting efficacy, piezoelectric sleep/wake monitoring, Atax mice; assay type: in vivo; conditions: dosed 5 h after light onset
Description: (§1) Wake-promoting efficacy of the compounds of the present disclosure may be evaluated in a model (e.g., the B6.Cg-Tg(HCRT-MJD)1Stak/J (Atax) mouse model of NT1 and wild type (WT) colony mates). The model (e.g., mouse model) may be monitored for rapid, non-invasive classification of sleep and wakefulness by unsupervised machine learning on physiologically relevant readouts, such as body movement and breath rate, after dosing of a compound of the present disclosure (e.g., oral dosing).
(§2) Wake-promoting efficacy was evaluated in the B6.Cg-Tg(HCRT-MJD)1Stak/J (Atax) mouse model of NT1 and wild type (WT) colony mates. Mice were monitored in home cages using piezoelectric sensors for rapid, non-invasive classification of sleep and wakefulness by unsupervised machine learning on physiologically relevant readouts, such as body movement and breath rate. Piezoelectric detection is highly correlated with conventional time-intensive electroencephalogram/electromyography measures of sleep/wake states in both WT and NT1 mice. In a counterbalanced design, mice were orally dosed at 5 h after light onset with test articles at 0 (vehicle), 3 and 30 mg/kg.

[3] = tested on: mouse models; conditions: cited from earlier work
[4] = tested on: wild type (WT) colony mates; experiment: Wake promoting efficacy, piezoelectric sleep/wake monitoring, wild type mice; assay type: in vivo, mouse; conditions: oral dose 30 mg/kg, dosed 5 h after light onset
Description: as §1, §2

[5] = tested on: individuals with NT1; conditions: cited from earlier work
[6] = CHO cells expressing hOX2R, FLIPR calcium fluorescence, read-out: hOx2 pEC50 (converted)
[7] = CHO cells expressing hOX2R, FLIPR calcium fluorescence

Row | SMILES | EC50 [1, 6] | Emax [1, 7] | also measured
1 | O=C([C@H]1CCO1)N1CC2(CC2)[C@H](NS(=O)(=O)C(F)F)[C@@H]1Cc1cccc(-c2cccc(F)c2)c1F [Compound 154, N-((6S,7S)-6-((2,3′-difluoro-[1,1′-biphenyl]-3-yl)methyl)-5-((R)-oxetane-2-carbonyl)-5-azaspiro[2.4]heptan-7-yl)-1,1-difluoromethanesulfonamide] | 0.0794 to 1 nM | 90 to 100% | Wake % time 1 h post dose (increase from vehicle) ([2]; oral dose 3 mg/kg): 24.4%; Wake % time 1 h post dose (increase from vehicle) ([2]; oral dose 30 mg/kg): 24.5%
2 | COc1ccc(-c2cccc(C(=O)N(C)C)c2)cc1S(=O)(=O)Nc1cccc(NCCNC(=O)c2ccccc2N(C)C)c1 [YNT-185] |  |  | sleep-onset REM periods and cataplexy-like events ([3]; NT1 mouse model): decrease sleep-onset REM periods and cataplexy-like events; wakefulness ([3]; intraperitoneally or ICV, wild type (WT) and orexin ligand-deficient mice): modestly increases wakefulness
3 | O=C([C@H]1CCO1)N1CC2(CC2)[C@H](NS(=O)(=O)CF)[C@@H]1Cc1cc(F)cc(-c2ccccc2)c1F [Compound 145, N-((6S,7S)-6-((2,5-difluoro-[1,1′-biphenyl]-3-yl)methyl)-5-((R)-oxetane-2-carbonyl)-5-azaspiro[2.4]heptan-7-yl)-1-fluoromethanesulfonamide] | 0.0794 to 1 nM | 90 to 100% | Wake % time 1 h post dose (increase from vehicle) ([4]; 30 mg/kg): 25.8%; Wake % time 1 h post dose (increase from vehicle) ([4]; listed as 59, 30 mg/kg): 21.1%; Wake % time 1 h post dose (increase from vehicle) ([2]; oral dose 3 mg/kg, 3 mg/kg): 26.9%; Wake % time 1 h post dose (increase from vehicle) ([2]; oral dose 3 mg/kg, listed as 59, 3 mg/kg): 35.5%; Wake % time 1 h post dose (increase from vehicle) ([2]; oral dose 30 mg/kg, 30 mg/kg): 28.3%; Wake % time 1 h post dose (increase from vehicle) ([2]; oral dose 30 mg/kg, listed as 59, 30 mg/kg): 48.6%
4 | O=C([C@H]1CCO1)N1CC2(CC2)[C@H](NS(=O)(=O)C(F)F)[C@@H]1Cc1cccc(-c2cc(F)cc(F)c2)c1F [Compound 175] | 0.0794 to 1 nM | 90 to 100% | Wake % time 1 h post dose (increase from vehicle) ([2]; oral dose 3 mg/kg): 25.3%; Wake % time 1 h post dose (increase from vehicle) ([2]; oral dose 30 mg/kg): 29%
5 | CS(=O)(=O)N[C@@H]1[C@H](Cc2cccc(-c3ccccc3)c2F)N(C(=O)[C@H]2CCO2)CC12CC2 (single isomer, unassigned) [Example 21] |  |  | Wake % time 1 h post dose (increase from vehicle) [4]: 14.4%; Wake % time 1 h post dose (increase from vehicle) ([2]; oral dose 3 mg/kg): 17.5%; Wake % time 1 h post dose (increase from vehicle) ([2]; oral dose 30 mg/kg): 27.9%
6 | CCS(=O)(=O)N[C@@H]1[C@H](Cc2cccc(-c3cccc(F)c3)c2F)N(C(=O)[C@H]2CCO2)CC12CC2 [Compound 129, N-((6S,7S)-6-((2,3′-difluoro-[1,1′-biphenyl]-3-yl)methyl)-5-((R)-oxetane-2-carbonyl)-5-azaspiro[2.4]heptan-7-yl)ethanesulfonamide] | 0.0794 to 1 nM | 90 to 100% | Wake % time 1 h post dose (increase from vehicle) [4]: 19.3%; Wake % time 1 h post dose (increase from vehicle) ([2]; oral dose 30 mg/kg): 25.0%
7 | COC(=O)N1CCC[C@H](NS(C)(=O)=O)[C@@H]1CO[C@H]1CC[C@@H](c2ccccc2)CC1 [TAK-925] |  |  | cataplexy [5]: trends for decreasing cataplexy; wakefulness [5]: substantial levels of increased wakefulness; wakefulness ([3]; subcutaneous, WT mice): modestly increased wakefulness
8 | O=C([C@H]1CCO1)N1CC2(CC2)[C@H](NS(=O)(=O)C(F)F)[C@@H]1Cc1cccc(-c2ccccc2)c1F [Compound 144, 1,1-difluoro-N-((6S,7S)-6-((2-fluoro-[1,1′-biphenyl]-3-yl)methyl)-5-((R)-oxetane-2-carbonyl)-5-azaspiro[2.4]heptan-7-yl)methanesulfonamide] | 0.0794 to 1 nM | 90 to 100% | Wake % time 1 h post dose (increase from vehicle) [4]: 27.2%; Wake % time 1 h post dose (increase from vehicle) ([2]; oral dose 3 mg/kg): 26.7%; Wake % time 1 h post dose (increase from vehicle) ([2]; oral dose 30 mg/kg): 29.2%
9 | [2H]C([2H])([2H])C([2H])([2H])NC(=O)N1CC2(CC2)[C@H](NS(C)(=O)=O)[C@@H]1Cc1cccc(-c2ccccc2)c1OC [Compound 363, (6S,7S)-N-(ethyl-d5)-6-((2-methoxy-[1,1′-biphenyl]-3-yl)methyl)-7-(methylsulfonamido)-5-azaspiro[2.4]heptane-5-carboxamide] | 10 to 100 nM | 70 to 80% | 
10 | CS(=O)(=O)N[C@@H]1[C@H](Cc2cccc(-c3ccccc3)c2)N(C(=O)[C@H](O)C2CC2)CC12CC2 [Compound 61, N-((6S,7S)-6-([1,1′-biphenyl]-3-ylmethyl)-5-((R)-2-cyclopropyl-2-hydroxyacetyl)-5-azaspiro[2.4]heptan-7-yl)methanesulfonamide] | 1 to 10 nM | 90 to 100% | 
11 | CC(F)(F)C(=O)N1CC2(CC2)[C@H](NS(C)(=O)=O)[C@@H]1Cc1cccc(-c2cccc(F)c2)c1F [Compound 294, N-((6S,7S)-6-((2,3'-difluoro-[1,1′-biphenyl]-3-yl)methyl)-5-(2,2-difluoropropanoyl)-5-azaspiro[2.4]heptan-7-yl)methanesulfonamide] | 10 to 100 nM | 80 to 90% | 
12 | CS(=O)(=O)N[C@@H]1[C@H](Cc2cccc(-c3ccccc3)c2)N(C(=O)C2(C#N)CCO2)CC12CC2 (stereo partly drawn) [Compound 47, N-((6S,7S)-6-([1,1′-biphenyl]-3-ylmethyl)-5-(2-cyanooxetane-2-carbonyl)-5-azaspiro[2.4]heptan-7-yl)methanesulfonamide] | 10 to 100 nM | 90 to 100% | 
13 | COC1(CNC(=O)N2CC3(CC3)[C@H](NS(=O)(=O)CF)[C@@H]2Cc2cccc(-c3ccccc3)c2F)CC1 [Compound 370, (6S,7S)-6-((2-fluoro-[1,1′-biphenyl]-3-yl)methyl)-7-((fluoromethyl)sulfonamido)-N-((1-methoxycyclopropyl)methyl)-5-azaspiro[2.4]heptane-5-carboxamide] | 0.0794 to 1 nM | 90 to 100% | 
14 | CS(=O)(=O)N[C@@H]1[C@H](Cc2cccc(-c3ccccc3)c2)N(C(=O)C2CCC2)CC12CC2 (racemic) [Compound 302, N-(-6-([1,1′-biphenyl]-3-ylmethyl)-5-(cyclobutanecarbonyl)-5-azaspiro[2.4]heptan-7-yl)methanesulfonamide] | 1 to 10 nM | 90 to 100% | 
15 | N#CC1(C(=O)N2CC3(CC3)[C@H](NS(=O)(=O)CF)[C@@H]2Cc2cccc(-c3cc(F)cc(F)c3)c2F)CCC1 [Compound 231, N-((6S,7S)-5-(1-cyanocyclobutane-1-carbonyl)-6-((2,3′,5′-trifluoro-[1,1′-biphenyl]-3-yl)methyl)-5-azaspiro[2.4]heptan-7-yl)-1-fluoromethanesulfonamide] | 1 to 10 nM | 90 to 100% | 
16 | C[C@H](F)CNC(=O)N1CC2(CC2)[C@H](NS(=O)(=O)CF)[C@@H]1Cc1cccc(-c2ccccc2)c1F [Compound 205] | 1 to 10 nM | 90 to 100% | 
17 | CO[C@H](C)CNC(=O)N1CC2(CC2)[C@H](NS(C)(=O)=O)[C@@H]1Cc1cccc(-c2ccccc2)c1F [Compound 324, (6S,7S)-6-((2-fluoro-[1,1′-biphenyl]-3-yl)methyl)-N-((R)-2-methoxypropyl)-7-(methylsulfonamido)-5-azaspiro[2.4]heptane-5-carboxamide] | 10 to 100 nM | 90 to 100% | 
18 | CCNC(=O)N1CC2(CC2)[C@H](NS(C)(=O)=O)[C@@H]1Cc1cccc(-c2ccccc2)c1OC [Compound 54, (6S,7S)—N-ethyl-6-((2-methoxy-[1,1′-biphenyl]-3-yl)methyl)-7-(methylsulfonamido)-5-azaspiro[2.4]heptane-5-carboxamide] |  |  | Emax [1]: 80 to 90%; EC50 ([1]; hOx2 pEC50, CHO cells expressing hOX2R, FLIPR calcium fluorescence): 1 to 10 nM
19 | O=C(NCC(F)F)N1CC2(CC2)[C@H](NS(=O)(=O)CF)[C@@H]1Cc1cccc(-c2ccccc2)c1F [Compound 187, (6S,7S)-N-(2,2-difluoroethyl)-6-((2-fluoro-[1,1′-biphenyl]-3-yl)methyl)-7-((fluoromethyl)sulfonamido)-5-azaspiro[2.4]heptane-5-carboxamide] | 0.0794 to 1 nM | 90 to 100% | 
20 | O=C([C@H]1CCO1)N1CC2(CC2)[C@H](NS(=O)(=O)CF)[C@@H]1Cc1cccc(-c2cccc(F)c2F)c1F [Compound 168, 1-fluoro-N-((6S,7S)-5-((R)-oxetane-2-carbonyl)-6-((2,2′,3′-trifluoro-[1,1′-biphenyl]-3-yl)methyl)-5-azaspiro[2.4]heptan-7-yl)methanesulfonamide] | 1 to 10 nM | 90 to 100% | 
